Where a SMILES comes first, the peptide text is derived from it. [ ]: non-standard residue; d: D form. Aib = CC(C)(N)C(=O)O
Tested on: Mouse monocyte/macrophage cell line, RAW 264.7
Experiment: Cholesterol efflux assay (3H-cholesterol, macrophage cell line)
Assay type: cell-based
Conditions: RAW 264.7, 4 hrs incubation, 0.1% human serum albumin, ABCA1-mediated efflux

Compound: CC[C@H](C)[C@H](NC(=O)[C@H](Cc1ccccc1)NC(=O)[C@H](CCC(=O)O)NC(=O)[C@H](CCCCN)NC(=O)[C@@H](NC(=O)[C@H](C)NC(=O)[C@H](CCC(=O)O)NC(=O)CNC(=O)[C@H](CCC(=O)O)NC(=O)[C@H](CC(C)C)NC(=O)[C@H](Cc1ccc(O)cc1)NC(=O)[C@H](CO)NC(=O)[C@H](CO)NC(=O)[C@@H](NC(=O)[C@H](CC(=O)O)NC(=O)[C@H](CO)NC(=O)[C@@H](NC(=O)[C@H](Cc1ccccc1)NC(=O)[C@@H](NC(=O)CNC(=O)[C@H](CCC(=O)O)NC(=O)C(C)(C)NC(=O)[C@@H](N)Cc1c[nH]cn1)[C@@H](C)O)[C@@H](C)O)C(C)C)C(C)C)C(=O)N[C@@H](C)C(=O)N[C@@H](Cc1c[nH]c2ccccc12)C(=O)N[C@@H](CC(C)C)C(=O)N[C@H](C(=O)N[C@@H](CCC(=O)O)C(=O)N[C@@H](CCCCN)C(=O)N[C@H](C(=O)N[C@@H](CCCCN)C(=O)N[C@@H](CCC(=O)O)C(=O)N[C@@H](CC(C)C)C(=O)N[C@@H](CC(C)C)C(N)=O)C(C)C)C(C)C [Compound 119, [Aib8,Glu23,Val25,Glu34,Lys35,Val36,Lys37]-GLP-1-(7-37)-peptidyl-Glu-Leu-Leu amide] (H-H[Aib]EGTFTSDVSSYLEGEAVKEFIAWLVEKVKELL-NH2)
- 4 h Cholesterol Efflux Emax: 117%

Compound: CC[C@H](C)[C@H](NC(=O)[C@H](Cc1ccccc1)NC(=O)[C@H](CCC(=O)O)NC(=O)[C@H](CCCCN)NC(=O)[C@H](C)NC(=O)[C@H](C)NC(=O)[C@H](CCC(N)=O)NC(=O)CNC(=O)[C@H](CCC(=O)O)NC(=O)[C@H](CC(C)C)NC(=O)[C@H](Cc1ccc(O)cc1)NC(=O)[C@H](CO)NC(=O)[C@H](CO)NC(=O)[C@@H](NC(=O)[C@H](CC(=O)O)NC(=O)[C@H](CO)NC(=O)[C@@H](NC(=O)[C@H](Cc1ccccc1)NC(=O)[C@@H](NC(=O)CNC(=O)[C@H](CCC(=O)O)NC(=O)C(C)(C)NC(=O)[C@@H](N)Cc1c[nH]cn1)[C@@H](C)O)[C@@H](C)O)C(C)C)C(=O)N[C@@H](C)C(=O)N[C@@H](Cc1c[nH]c2ccccc12)C(=O)N[C@@H](CC(C)C)C(=O)N[C@H](C(=O)N[C@@H](CCCCN)C(=O)NCC(=O)N[C@H](C(=O)NCC(=O)N[C@@H](CCC(=O)O)C(=O)N[C@@H](Cc1ccccc1)C(=O)N[C@@H](CC(C)C)C(N)=O)C(C)C)C(C)C [Compound 75]
- 4 h Cholesterol Efflux Emax: 68%

Compound: CC[C@H](C)[C@H](NC(=O)[C@H](Cc1ccccc1)NC(=O)[C@H](CCC(=O)O)NC(=O)[C@H](CCCCN)NC(=O)[C@@H](NC(=O)[C@H](C)NC(=O)[C@H](CCC(=O)O)NC(=O)[C@H](CCC(=O)O)NC(=O)[C@H](CCC(=O)O)NC(=O)[C@H](CC(C)C)NC(=O)[C@H](Cc1ccc(O)cc1)NC(=O)[C@H](CO)NC(=O)[C@H](CO)NC(=O)[C@@H](NC(=O)[C@H](CC(=O)O)NC(=O)[C@H](CO)NC(=O)[C@@H](NC(=O)[C@H](Cc1ccccc1)NC(=O)[C@@H](NC(=O)CNC(=O)[C@H](CCC(=O)O)NC(=O)C(C)(C)NC(=O)[C@@H](N)Cc1c[nH]cn1)[C@@H](C)O)[C@@H](C)O)C(C)C)C(C)C)C(=O)N[C@@H](C)C(=O)N[C@@H](Cc1c[nH]c2ccccc12)C(=O)N[C@@H](CC(C)C)C(=O)N[C@H](C(=O)N[C@@H](CCC(=O)O)C(=O)N[C@@H](CCCCN)C(=O)N[C@H](C(=O)N[C@@H](CCCCN)C(=O)N[C@@H](CCC(=O)O)C(=O)N[C@@H](CC(C)C)C(=O)N[C@@H](CC(C)C)C(N)=O)C(C)C)C(C)C [Compound 109, [Aib8,Glu22,Glu23,Val25,Glu34,Lys35,Val36,Lys37]-GLP-1-(7-37)-peptidyl-Glu-Leu-Leu amide] (H-H[Aib]EGTFTSDVSSYLEEEAVKEFIAWLVEKVKELL-NH2)
- 4 h Cholesterol Efflux Emax: 99%

Compound: CC[C@H](C)[C@H](NC(=O)[C@H](Cc1ccccc1)NC(=O)[C@H](CCC(=O)O)NC(=O)[C@H](CCCCN)NC(=O)[C@@H](NC(=O)[C@H](C)NC(=O)[C@H](CCC(=O)O)NC(=O)CNC(=O)[C@H](CCC(=O)O)NC(=O)[C@H](CC(C)C)NC(=O)[C@H](Cc1ccc(O)cc1)NC(=O)[C@H](CO)NC(=O)[C@H](CO)NC(=O)[C@@H](NC(=O)[C@H](CC(=O)O)NC(=O)[C@H](CO)NC(=O)[C@@H](NC(=O)[C@H](Cc1ccccc1)NC(=O)[C@@H](NC(=O)CNC(=O)[C@H](CCC(=O)O)NC(=O)C(C)(C)NC(=O)[C@@H](N)Cc1c[nH]cn1)[C@@H](C)O)[C@@H](C)O)C(C)C)C(C)C)C(=O)N[C@@H](C)C(=O)N[C@@H](Cc1c[nH]c2ccccc12)C(=O)N[C@@H](CC(C)C)C(=O)N[C@H](C(=O)N[C@@H](CCC(=O)O)C(=O)N[C@@H](CCCCN)C(=O)N[C@H](C(=O)N[C@@H](CCCCN)C(=O)N[C@@H](CC(=O)O)C(=O)N[C@@H](Cc1ccccc1)C(=O)N[C@@H](CC(C)C)C(N)=O)C(C)C)C(C)C [Compound 114, [Aib8,Glu23,Val25,Glu34,Lys35,Val36,Lys37]-GLP-1-(7-37)-peptidyl-Asp-Phe-Leu amide] (H-H[Aib]EGTFTSDVSSYLEGEAVKEFIAWLVEKVKDFL-NH2)
- 4 h Cholesterol Efflux Emax: 103%

Compound: H-HAEGTFTSDVSSYLEGQAAKEFIAWLVEKVKEHLEK-OH [Compound 126, [Glu34,Lys35,Val36,Lys37]-GLP-1-(7-37)-peptidyl-Glu-His-Leu-Glu-Lys]
- 4 h Cholesterol Efflux Emax: 102%

Compound: CC[C@H](C)[C@H](NC(=O)[C@H](Cc1ccccc1)NC(=O)[C@H](CCC(N)=O)NC(=O)[C@H](CCCCN)NC(=O)[C@@H](NC(=O)[C@H](C)NC(=O)[C@H](CCC(N)=O)NC(=O)CNC(=O)[C@H](CCC(=O)O)NC(=O)[C@H](CC(C)C)NC(=O)[C@H](Cc1ccc(O)cc1)NC(=O)[C@H](CO)NC(=O)[C@H](CO)NC(=O)[C@@H](NC(=O)[C@H](CC(=O)O)NC(=O)[C@H](CO)NC(=O)[C@@H](NC(=O)[C@H](Cc1ccccc1)NC(=O)[C@@H](NC(=O)CNC(=O)[C@H](CCC(=O)O)NC(=O)C(C)(C)NC(=O)[C@@H](N)Cc1c[nH]cn1)[C@@H](C)O)[C@@H](C)O)C(C)C)C(C)C)C(=O)N[C@@H](C)C(=O)N[C@@H](Cc1c[nH]c2ccccc12)C(=O)N[C@@H](CC(C)C)C(=O)N[C@H](C(=O)N[C@@H](CCC(=O)O)C(=O)N[C@@H](CCCCN)C(=O)NC(C)(C)C(=O)N[C@@H](C)C(=O)N[C@@H](CCC(=O)O)C(=O)N[C@@H](Cc1ccccc1)C(=O)N[C@@H](CC(C)C)C(N)=O)C(C)C [Compound 72] (H-H[Aib]EGTFTSDVSSYLEGQAVKQFIAWLVEK[Aib]AEFL-NH2)
- 4 h Cholesterol Efflux Emax: 78%

Compound: CC[C@H](C)[C@H](NC(=O)[C@H](Cc1ccccc1)NC(=O)[C@H](CCC(=O)O)NC(=O)[C@H](CCCCN)NC(=O)[C@@H](NC(=O)C(C)(C)NC(=O)[C@H](CCC(=O)O)NC(=O)CNC(=O)[C@H](CCC(=O)O)NC(=O)[C@H](CC(C)C)NC(=O)[C@H](Cc1ccc(O)cc1)NC(=O)[C@H](CO)NC(=O)[C@H](CO)NC(=O)[C@@H](NC(=O)[C@H](CC(=O)O)NC(=O)[C@H](CO)NC(=O)[C@@H](NC(=O)[C@H](Cc1ccccc1)NC(=O)[C@@H](NC(=O)CNC(=O)[C@H](CCC(=O)O)NC(=O)C(C)(C)NC(=O)[C@@H](N)Cc1c[nH]cn1)[C@@H](C)O)[C@@H](C)O)C(C)C)C(C)C)C(=O)NC(C)(C)C(=O)N[C@@H](Cc1c[nH]c2ccccc12)C(=O)N[C@@H](CC(C)C)C(=O)N[C@H](C(=O)N[C@@H](CCC(=O)O)C(=O)N[C@@H](CCCCN)C(=O)NC(C)(C)C(=O)N[C@@H](CCCCN)C(=O)N[C@@H](CCC(=O)O)C(=O)N[C@@H](Cc1ccccc1)C(=O)N[C@@H](CC(C)C)C(N)=O)C(C)C [Compound 3, [Aib8,Glu23,Aib24,Val25,Aib30,Glu34,Lys35,Aib36,Lys37]-GLP-1-(7-37)-peptidyl-Glu-Phe-Leu amide] (H-H[Aib]EGTFTSDVSSYLEGE[Aib]VKEFI[Aib]WLVEK[Aib]KEFL-NH2)
- 4 h Cholesterol Efflux Emax: 82%

From patent publication US20150344540A1, “NOVEL GLP-1 RECEPTOR AGONISTS WITH CHOLESTEROL EFFLUX ACTIVITY” (NOVO NORDISK A/S, priority 2012, published 2015)
